From US11697648B2, “Fused pyrimidine pyridinone compounds as JAK inhibitors” (THERAVANCE BIOPHARMA R&D IP, LLC, priority 2019, dated 2023)

Experiments:
JAK3 = JAK3 (Homo sapiens (Human), UniProt P52333); assay: Biochemical JAK3 kinase assay (LanthaScreen); settings: for JAK3 (pKi)-JAK1 (pKi): selectivity JAK3 over JAK1, difference of pKi
Outline: (§1)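 GST-JAK + GFP-STAT1 peptide, HEPES pH 7.5/MgCl2/EGTA/Brij-35 buffer; cpd preincubation 1 h RT; ATP start, 1 h RT; stop with 10 mM EDTA + 2 nM Tb-anti-pSTAT1; TR-FRET 520/495. 4-parameter IC50 → pKi (Cheng-Prusoff).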

JAK2 = JAK2 (Homo sapiens (Human), UniProt O60674); assay: Biochemical JAK2 kinase assay (LanthaScreen)
Outline: as §1

[1] = tested on: IL-2 stimulated STAT5 phosphorylation in Tall-1 human T cell line (JAK3); assay: Cellular JAK3 potency assay: inhibition of IL-2 stimulated pSTAT5 in Tall-1 T cells; type: cell-based; settings: IL-2 stimulated pSTAT5, Tall-1 T cells
Outline: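 Tall-1 cells, 45,000 per well, preincubated 1 hour with compound at 37 °C, then stimulated 30 minutes with IL-2 at 300 ng/ml final. pSTAT5 (Tyr694/699) in lysates quantified by AlphaLISA SureFire Ultra. pIC50 derived from inhibition curves, given as mean with SD.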

JAK1 = JAK1 (Homo sapiens (Human), UniProt P23458); assay: Biochemical JAK1 kinase assay (LanthaScreen)
Outline: as §1

Tyk2 = Tyk2 (Homo sapiens (Human), UniProt P29597); assay: Biochemical Tyk2 kinase assay (LanthaScreen)
Outline: as §1

Chain of Tyk2 (P29597 whole entry): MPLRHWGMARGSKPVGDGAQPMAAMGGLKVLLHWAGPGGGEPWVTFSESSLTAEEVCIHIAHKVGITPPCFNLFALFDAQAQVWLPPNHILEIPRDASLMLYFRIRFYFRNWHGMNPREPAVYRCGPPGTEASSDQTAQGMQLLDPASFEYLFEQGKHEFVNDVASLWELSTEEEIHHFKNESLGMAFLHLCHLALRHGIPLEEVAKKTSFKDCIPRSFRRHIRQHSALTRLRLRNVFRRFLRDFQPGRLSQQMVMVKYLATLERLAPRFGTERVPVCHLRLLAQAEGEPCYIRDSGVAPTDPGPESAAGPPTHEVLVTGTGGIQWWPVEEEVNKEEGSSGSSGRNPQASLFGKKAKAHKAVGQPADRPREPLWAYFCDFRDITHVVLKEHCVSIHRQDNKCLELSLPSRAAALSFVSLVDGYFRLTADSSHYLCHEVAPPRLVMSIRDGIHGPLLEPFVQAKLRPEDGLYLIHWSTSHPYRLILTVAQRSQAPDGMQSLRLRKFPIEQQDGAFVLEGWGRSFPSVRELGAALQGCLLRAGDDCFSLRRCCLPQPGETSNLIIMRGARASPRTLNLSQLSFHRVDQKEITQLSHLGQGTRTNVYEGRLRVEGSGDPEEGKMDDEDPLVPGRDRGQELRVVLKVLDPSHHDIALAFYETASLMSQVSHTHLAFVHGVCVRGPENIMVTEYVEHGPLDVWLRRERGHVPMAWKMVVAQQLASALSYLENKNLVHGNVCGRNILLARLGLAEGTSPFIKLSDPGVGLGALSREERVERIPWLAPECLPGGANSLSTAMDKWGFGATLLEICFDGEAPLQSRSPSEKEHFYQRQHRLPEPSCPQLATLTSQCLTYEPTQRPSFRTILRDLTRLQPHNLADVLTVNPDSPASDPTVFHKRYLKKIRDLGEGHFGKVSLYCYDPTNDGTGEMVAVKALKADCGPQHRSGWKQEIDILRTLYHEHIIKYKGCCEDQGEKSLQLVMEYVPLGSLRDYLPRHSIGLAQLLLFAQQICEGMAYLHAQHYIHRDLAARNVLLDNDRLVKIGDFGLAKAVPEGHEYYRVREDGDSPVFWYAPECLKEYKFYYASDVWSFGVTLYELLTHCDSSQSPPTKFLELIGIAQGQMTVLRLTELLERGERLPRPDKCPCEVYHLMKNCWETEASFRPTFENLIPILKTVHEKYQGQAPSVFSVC
Chain of JAK1 (P23458 whole entry): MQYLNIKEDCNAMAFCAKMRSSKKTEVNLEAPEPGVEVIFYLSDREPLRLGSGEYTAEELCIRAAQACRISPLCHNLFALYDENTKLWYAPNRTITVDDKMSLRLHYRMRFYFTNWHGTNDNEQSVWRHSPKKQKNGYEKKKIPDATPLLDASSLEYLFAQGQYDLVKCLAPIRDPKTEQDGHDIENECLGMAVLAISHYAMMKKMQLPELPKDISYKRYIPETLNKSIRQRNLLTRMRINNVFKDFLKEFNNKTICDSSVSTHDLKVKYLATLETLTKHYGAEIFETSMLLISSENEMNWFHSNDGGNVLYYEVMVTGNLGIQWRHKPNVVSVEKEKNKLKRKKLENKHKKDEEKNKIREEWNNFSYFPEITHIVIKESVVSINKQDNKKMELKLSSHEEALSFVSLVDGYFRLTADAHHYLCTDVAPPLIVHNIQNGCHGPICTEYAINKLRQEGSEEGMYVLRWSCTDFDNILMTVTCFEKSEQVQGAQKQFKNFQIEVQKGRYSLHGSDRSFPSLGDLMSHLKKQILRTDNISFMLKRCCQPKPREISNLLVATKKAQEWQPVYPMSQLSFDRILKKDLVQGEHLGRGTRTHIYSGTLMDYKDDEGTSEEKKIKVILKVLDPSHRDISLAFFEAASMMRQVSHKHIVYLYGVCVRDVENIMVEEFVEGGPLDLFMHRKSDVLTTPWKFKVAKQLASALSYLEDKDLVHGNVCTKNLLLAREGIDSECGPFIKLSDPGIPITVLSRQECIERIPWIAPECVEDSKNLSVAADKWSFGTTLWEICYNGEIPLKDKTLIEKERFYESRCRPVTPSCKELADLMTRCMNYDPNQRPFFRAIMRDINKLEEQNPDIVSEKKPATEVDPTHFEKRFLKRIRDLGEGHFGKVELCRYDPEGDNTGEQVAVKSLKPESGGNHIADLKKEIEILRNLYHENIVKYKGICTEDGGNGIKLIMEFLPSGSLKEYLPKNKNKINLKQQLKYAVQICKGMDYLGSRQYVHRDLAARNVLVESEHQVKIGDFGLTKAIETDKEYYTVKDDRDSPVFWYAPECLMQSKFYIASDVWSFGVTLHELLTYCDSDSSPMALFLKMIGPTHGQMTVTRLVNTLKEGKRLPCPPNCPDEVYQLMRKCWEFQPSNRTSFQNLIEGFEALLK
Chain of JAK3 (P52333 whole entry): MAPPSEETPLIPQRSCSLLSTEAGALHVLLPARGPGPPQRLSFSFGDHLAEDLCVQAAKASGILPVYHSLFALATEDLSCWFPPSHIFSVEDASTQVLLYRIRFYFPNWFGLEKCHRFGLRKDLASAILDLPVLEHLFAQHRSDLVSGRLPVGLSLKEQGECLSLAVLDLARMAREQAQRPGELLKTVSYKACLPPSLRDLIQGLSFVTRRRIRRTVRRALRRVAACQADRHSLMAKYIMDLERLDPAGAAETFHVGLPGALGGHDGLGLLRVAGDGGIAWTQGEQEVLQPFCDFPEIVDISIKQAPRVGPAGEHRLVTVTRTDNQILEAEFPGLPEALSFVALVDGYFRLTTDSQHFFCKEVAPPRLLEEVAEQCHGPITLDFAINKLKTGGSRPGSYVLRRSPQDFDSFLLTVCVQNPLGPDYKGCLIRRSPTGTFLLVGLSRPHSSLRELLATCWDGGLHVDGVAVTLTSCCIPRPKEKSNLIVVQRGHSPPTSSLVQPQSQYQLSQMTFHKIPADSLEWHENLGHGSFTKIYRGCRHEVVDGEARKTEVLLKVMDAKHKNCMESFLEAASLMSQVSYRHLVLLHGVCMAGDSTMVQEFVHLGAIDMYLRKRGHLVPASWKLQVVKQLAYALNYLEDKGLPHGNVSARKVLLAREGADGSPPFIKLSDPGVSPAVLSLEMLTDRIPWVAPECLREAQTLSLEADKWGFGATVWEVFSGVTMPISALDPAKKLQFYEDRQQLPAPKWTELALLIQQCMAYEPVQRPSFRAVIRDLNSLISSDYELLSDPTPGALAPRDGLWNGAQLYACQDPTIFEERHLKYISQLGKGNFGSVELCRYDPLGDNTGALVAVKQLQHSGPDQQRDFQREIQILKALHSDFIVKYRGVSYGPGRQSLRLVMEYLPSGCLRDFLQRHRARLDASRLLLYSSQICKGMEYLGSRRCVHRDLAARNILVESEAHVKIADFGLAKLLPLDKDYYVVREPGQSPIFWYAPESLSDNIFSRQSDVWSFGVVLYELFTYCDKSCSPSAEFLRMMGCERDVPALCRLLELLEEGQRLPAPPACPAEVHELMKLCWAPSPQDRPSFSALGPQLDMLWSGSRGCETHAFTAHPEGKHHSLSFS
Chain of JAK2 (O60674 whole entry): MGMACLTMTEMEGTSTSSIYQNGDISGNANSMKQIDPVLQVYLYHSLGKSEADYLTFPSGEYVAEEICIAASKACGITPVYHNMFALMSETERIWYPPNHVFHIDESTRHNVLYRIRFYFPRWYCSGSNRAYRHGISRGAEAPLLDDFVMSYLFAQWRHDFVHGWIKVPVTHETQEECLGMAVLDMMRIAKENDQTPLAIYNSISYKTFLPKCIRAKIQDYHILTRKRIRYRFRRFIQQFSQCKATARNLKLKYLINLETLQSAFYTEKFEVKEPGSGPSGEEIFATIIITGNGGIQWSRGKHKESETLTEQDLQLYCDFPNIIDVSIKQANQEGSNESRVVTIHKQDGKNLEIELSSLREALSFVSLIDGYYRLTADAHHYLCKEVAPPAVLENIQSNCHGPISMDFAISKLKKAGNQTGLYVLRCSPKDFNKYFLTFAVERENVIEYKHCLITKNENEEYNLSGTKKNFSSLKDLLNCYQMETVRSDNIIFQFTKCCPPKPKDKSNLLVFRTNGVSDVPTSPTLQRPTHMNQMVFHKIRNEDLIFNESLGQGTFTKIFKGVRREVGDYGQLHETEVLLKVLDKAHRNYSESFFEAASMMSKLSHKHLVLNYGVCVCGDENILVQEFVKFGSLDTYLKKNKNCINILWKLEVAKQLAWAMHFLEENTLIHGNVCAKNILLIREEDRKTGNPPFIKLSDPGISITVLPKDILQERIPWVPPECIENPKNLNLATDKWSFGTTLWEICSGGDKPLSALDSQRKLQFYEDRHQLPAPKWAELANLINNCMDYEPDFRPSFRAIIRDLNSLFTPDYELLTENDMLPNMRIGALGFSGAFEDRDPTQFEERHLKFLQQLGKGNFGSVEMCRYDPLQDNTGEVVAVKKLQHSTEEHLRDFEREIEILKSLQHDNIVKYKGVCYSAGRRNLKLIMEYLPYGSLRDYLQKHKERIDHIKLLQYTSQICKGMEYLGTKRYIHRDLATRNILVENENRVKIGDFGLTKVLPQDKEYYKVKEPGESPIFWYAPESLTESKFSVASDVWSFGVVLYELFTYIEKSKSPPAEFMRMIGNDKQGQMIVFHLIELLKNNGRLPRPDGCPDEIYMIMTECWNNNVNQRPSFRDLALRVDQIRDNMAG

Structure (SMILES)	JAK 3 (pKi) (JAK3)	JAK3 (pKi)-JAK1 (pKi) (JAK3)	JAK 2 (pKi) (JAK2)	Tall-1 (pIC50) [1]	JAK 1 (pKi) (JAK1)	Tyk 2 (pKi) (Tyk2)
C=CC(=O)N1CC(CCn2c(=O)ccc3cnc(Nc4ccc(N5CCN(S(=O)(=O)N(C)C)CC5)cc4)nc32)C1 [Example 97]	B (B represents pKi value between 9 and 10 (Ki between 1 nM and 0.1 nM))	A (A represents a value of 3 or above)	E (E represents a pKi value of 7 or below (Ki of 100 nM or above))	A (A represents a pIC50 value≥7.5 (IC50≤32 nM))	E (E represents a pKi value of 7 or below (Ki of 100 nM or above))	E (E represents a pKi value of 7 or below (Ki of 100 nM or above))
C=CC(=O)N1CC(CCn2c(=O)ccc3cnc(Nc4ccc(N5CCN(C(=O)CC(C)C)CC5)cc4)nc32)C1 [Example 103]	A (A represents a pKi value≥10 (Ki≤0.1 nM))	A (A represents a value of 3 or above)	E (E represents a pKi value of 7 or below (Ki of 100 nM or above))	A (A represents a pIC50 value≥7.5 (IC50≤32 nM))	E (E represents a pKi value of 7 or below (Ki of 100 nM or above))	E (E represents a pKi value of 7 or below (Ki of 100 nM or above))
C=CC(=O)N1CC(CCn2c(=O)ccc3cnc(Nc4ccc(N5CCN(C(=O)C(C)(C)C)CC5)cc4)nc32)C1 [Example 104]	A (A represents a pKi value≥10 (Ki≤0.1 nM))	A (A represents a value of 3 or above)	E (E represents a pKi value of 7 or below (Ki of 100 nM or above))	A (A represents a pIC50 value≥7.5 (IC50≤32 nM))	E (E represents a pKi value of 7 or below (Ki of 100 nM or above))	E (E represents a pKi value of 7 or below (Ki of 100 nM or above))
C=CC(=O)N1CC(CCn2c(=O)ccc3cnc(Nc4cccc(CN5CCN(C(=O)OC)CC5)c4)nc32)C1 [Example 111]	B (B represents pKi value between 9 and 10 (Ki between 1 nM and 0.1 nM))	A (A represents a value of 3 or above)	E (E represents a pKi value of 7 or below (Ki of 100 nM or above))	B (B represents a pC50 value between 6.7 (included) and 7.5 (IC50 between 200 nM and 32 nM))	E (E represents a pKi value of 7 or below (Ki of 100 nM or above))	E (E represents a pKi value of 7 or below (Ki of 100 nM or above))
C=CC(=O)N1CC(CCn2c(=O)ccc3cnc(Nc4ccc(N5CCN(CCN6CCCCC6)CC5)cc4)nc32)C1 [Example 113]	B (B represents pKi value between 9 and 10 (Ki between 1 nM and 0.1 nM))	A (A represents a value of 3 or above)	E (E represents a pKi value of 7 or below (Ki of 100 nM or above))	A (A represents a pIC50 value≥7.5 (IC50≤32 nM))	E (E represents a pKi value of 7 or below (Ki of 100 nM or above))	E (E represents a pKi value of 7 or below (Ki of 100 nM or above))
C=CC(=O)N1CC(CCn2c(=O)ccc3cnc(Nc4ccc(N5CCN(CC)CC5)cc4)nc32)C1 [Example 114]	A (A represents a pKi value≥10 (Ki≤0.1 nM))	A (A represents a value of 3 or above)	E (E represents a pKi value of 7 or below (Ki of 100 nM or above))	A (A represents a pIC50 value≥7.5 (IC50≤32 nM))	E (E represents a pKi value of 7 or below (Ki of 100 nM or above))	E (E represents a pKi value of 7 or below (Ki of 100 nM or above))
C=CC(=O)N1CC(CCn2c(=O)ccc3cnc(Nc4ccc(N5CCN(C(C)CC)CC5)cc4)nc32)C1 (stereo not drawn) [Example 115]	B (B represents pKi value between 9 and 10 (Ki between 1 nM and 0.1 nM))	A (A represents a value of 3 or above)	E (E represents a pKi value of 7 or below (Ki of 100 nM or above))	A (A represents a pIC50 value≥7.5 (IC50≤32 nM))	E (E represents a pKi value of 7 or below (Ki of 100 nM or above))	E (E represents a pKi value of 7 or below (Ki of 100 nM or above))
C=CC(=O)N1CC(CCn2c(=O)ccc3cnc(Nc4ccc(N5CCN(CCC6CCCCC6)CC5)cc4)nc32)C1 [Example 116]	B (B represents pKi value between 9 and 10 (Ki between 1 nM and 0.1 nM))	B (B represents a value of 2.5 to 3)	E (E represents a pKi value of 7 or below (Ki of 100 nM or above))	B (B represents a pC50 value between 6.7 (included) and 7.5 (IC50 between 200 nM and 32 nM))	E (E represents a pKi value of 7 or below (Ki of 100 nM or above))	E (E represents a pKi value of 7 or below (Ki of 100 nM or above))
C=CC(=O)N1CC(CCn2c(=O)ccc3cnc(Nc4ccc(N5CCN(C6CC6)CC5)cc4)nc32)C1 [Example 118]	B (B represents pKi value between 9 and 10 (Ki between 1 nM and 0.1 nM))	A (A represents a value of 3 or above)	E (E represents a pKi value of 7 or below (Ki of 100 nM or above))	B (B represents a pC50 value between 6.7 (included) and 7.5 (IC50 between 200 nM and 32 nM))	E (E represents a pKi value of 7 or below (Ki of 100 nM or above))	E (E represents a pKi value of 7 or below (Ki of 100 nM or above))
C=CC(=O)N1CC(CCn2c(=O)ccc3cnc(Nc4ccc(N5CCN(CC(F)(F)F)CC5)cc4)nc32)C1 [Example 119]	A (A represents a pKi value≥10 (Ki≤0.1 nM))	A (A represents a value of 3 or above)	E (E represents a pKi value of 7 or below (Ki of 100 nM or above))	B (B represents a pC50 value between 6.7 (included) and 7.5 (IC50 between 200 nM and 32 nM))	E (E represents a pKi value of 7 or below (Ki of 100 nM or above))	E (E represents a pKi value of 7 or below (Ki of 100 nM or above))
C=CC(=O)N1CC(CCn2c(=O)ccc3cnc(Nc4ccc(N5CCN(C(C)C)CC5)cc4)nc32)C1 [Example 120]	B (B represents pKi value between 9 and 10 (Ki between 1 nM and 0.1 nM))	A (A represents a value of 3 or above)	E (E represents a pKi value of 7 or below (Ki of 100 nM or above))	A (A represents a pIC50 value≥7.5 (IC50≤32 nM))	E (E represents a pKi value of 7 or below (Ki of 100 nM or above))	E (E represents a pKi value of 7 or below (Ki of 100 nM or above))
C=CC(=O)N1C[C@H](C)N(CCn2c(=O)ccc3cnc(Nc4cnn(C)c4)nc32)C[C@@H]1C [Example 121]	B (B represents pKi value between 9 and 10 (Ki between 1 nM and 0.1 nM))	B (B represents a value of 2.5 to 3)	E (E represents a pKi value of 7 or below (Ki of 100 nM or above))	C (C represents a pIC50 value between 6 and 6.7 (IC50 between 1 μM and 200 nM))	E (E represents a pKi value of 7 or below (Ki of 100 nM or above))	E (E represents a pKi value of 7 or below (Ki of 100 nM or above))
C=CC(=O)N1CC(CCn2c(=O)ccc3cnc(Nc4cccc(N5CCN(S(=O)(=O)CCOC)CC5)c4)nc32)C1 [Example 122]	B (B represents pKi value between 9 and 10 (Ki between 1 nM and 0.1 nM))	A (A represents a value of 3 or above)	E (E represents a pKi value of 7 or below (Ki of 100 nM or above))	B (B represents a pC50 value between 6.7 (included) and 7.5 (IC50 between 200 nM and 32 nM))	E (E represents a pKi value of 7 or below (Ki of 100 nM or above))	E (E represents a pKi value of 7 or below (Ki of 100 nM or above))
